Assays:
[1] = tested on: NF-κB; assay: Inhibition of SARS-CoV-2-induced NF-κB activation in RAW 264.7/NF-κB-luc cells (luciferase); format: cell-based, murine; settings: same agents as in the RAW 264.7 uptake test
[2] = tested on: NF-κB; assay: Inhibition of SARS-CoV-2-induced NF-κB activation in A549/NF-κB-luc cells (luciferase); format: cell-based, human
[3] = tested on: heat-inactivated SARS-CoV-2; assay: Inhibition of SARS-CoV-2 uptake into RAW 264.7 murine macrophages (flow cytometry); format: cell-based; settings: co-administered with SARS-CoV-2

Molecule | inhibition of SARS-CoV-2-induced NF-κB activation (percent inhibition, FIG. 8) [1] | inhibition of SARS-CoV-2-induced NF-κB activation (percent inhibition, FIG. 5) [2] | inhibition of SARS-CoV-2 cellular uptake (percent inhibition, FIG. 7) [3]
heparan sulfate | inhibited | significantly (p<0.05) inhibited | significantly (p<0.05) inhibited
PRRAR peptide: PRRAR peptide from the heparin-binding motif of the S1 subunit of the SARS-CoV-2 spike protein (Pro681-Arg685) (UniProt P0DTC2 681-685, looked up, fragment) | inhibited | – | significantly (p<0.05) inhibited
Cn1c2ccccc2c2c3c(c4c5ccccc5n(CCC#N)c4c21)CNC3=O [Gö 6983, Gö 6976] | inhibited | significantly (p<0.05) inhibited | significantly (p<0.05) inhibited
TAT peptide: amino acid sequence YGRKKRRQRRR, synthesized by PepScan | – | significantly (p<0.05) inhibited | –
polyarginine: R8, amino acid sequence RRRRRRRR, synthesized by PepScan | – | significantly (p<0.05) inhibited | –
SPRRARSV peptide: SPRRARSV (Ser680-Val687, includes the PRRAR heparin-binding motif) from the S1 subunit of the SARS-CoV-2 spike protein | – | significantly (p<0.05) inhibited | –
NC(N)=NC(=O)c1nc(Cl)c(N2CCCCCC2)nc1N [hexamethylene amiloride] | inhibited | significantly (p<0.05) inhibited | significantly (p<0.05) inhibited
recombinant SDC4: recombinant SDC4, RnD Systems, Cat. no. 2918-SD (protein, UniProt P31431 19-198, looked up) Syndecan-4: ESIRETEVIDPQDLLEGRYFSGALPDDEDVVGPGQESDDFELSGSGDLDDLEDSMIGPEVVHPLVPLDNHIPERAGSGSQVPTEPKKLEENEVIPKRISPVEESEDVSNKVSMSSTVQGSNIFERTEVLAALIVGGIVGILFAVFLILLLMYRMKKKDEGSYDLGKKPIYKKAPTNEFYA | inhibited | significantly (p<0.05) inhibited | significantly (p<0.05) inhibited

Reference: patent publication US20230174667A1 (priority 2020, published 2023)
